Laboratory results from US8329697B2, “Imidizo[1,2-A]pyrazines useful as AHCY hydrolase inhibitors” (Merck Sharp & Dohme Corp., priority 2008, dated 2012).

How the values were obtained:
AHCY enzyme = AHCY enzyme (UniProt P23526); assay: In vitro AHCY activity assay (ThioGlo1 fluorescence); format: biochemical; details: recombinant expressed human or mouse AHCY enzyme; SAH substrate; ThioGlo1 readout
Procedure: In vitro AHCY Activity Assay
The AHCY activity of the compounds of the invention can be measured by the following in vitro assay.
The AHCY enzyme assay is based on the principle of fluorescence emission following incubation of a reactive dye with the products of an AHCY catalyzed reaction. The reactive dye (Thioglo1) binds homocysteine through its thiol-containing moiety. The products of the AHCY catalyzed reaction, adenosine and homocysteine, are produced from the hydrolysis of SAH (s-adenosylhomocysteine) through AHCY's hydrolase activity.
The reaction is optimized in 96-, 384-, 1536- and 3456-assay plate formats with recombinant expressed human or mouse AHCY enzyme. When run under initial velocity conditions, the assay is suitable for IC50 and % inhibition calculations.
• 1) ThioGlo1 (catalog 595501, Calbiochem); 100 mM in DMSO • 2) SAH (catalog A-9384, Sigma); 4.69 mM with 0.06 N HCl • 3) Aristeromycin (catalog A-0928, Sigma); 100 mM in DMSO • 4) NAD (catalog 43410, Sigma); 14.5 mM in water • 5) EDTA in 500 mM pH 8 (catalog BP2482-100, Fisher) • 6) DTT stock 200 mM in water • 7) AHCY enzyme (diluted with 100 mM tris pH7.5) Dilutions immediately prior to use: • 1. SAH 750 μM (10×) (dilute with 100 mM Iris pH 7.5) • 2. Aristeromycin (10×) (dilute to 1 mM with 100 mM Tris pH7.5) • 3. ThioGlo1 (10×) (dilute to 100 μM in Tris pH7.5) • 4. […] Read plate (Ex 380 Em 510)

[1] = test system: AHCY in HEK293 and/or SH-SY5Y cells; assay: Cell-based assay of AHCY inhibition (secreted homocysteine); details: secreted homocysteine from Hek293 or SH-SY5Y cells, 72 hrs compound treatment
Excerpt: Cell-Based Assay of AHCY Inhibition
The AHCY activity of the compounds of the invention can be measured by the following cell-based assay.
Post treatment collection of the adherent Hek293 and/or SH-SY5Y cells is also made for a viability and proliferation measure. Since the amount of secreted homocysteine is limited by the amount of SAH that is converted to homocysteine in the cells and its subsequent secretion, an EC50 measure and % inhibition relative to DMSO control cells can be made. Since the amount of secreted metabolites such as homocysteine can also be related to the absolute and cellular viability, an MTT (3-(4,5-Dimethylthiazol-2-yl)-2,5-diphenyltetrazolium bromide) measure of proliferation and relative cytotoxicty (as compared to control conditions) may also be made.
• 1. The day before compound treatment, plate 20,000 cells (Hek293 or SH-SY5Y) in 96 well cell culture treated plates in 100 μl of cell culture media (DMEM and 10% fetal bovine serum). • 2. Add fresh media plus compound (and DMSO treated controls) for 72 hrs. • 3. Collect conditioned media for measurement of secreted homocysteine and perform viability/proliferation assay on adherent cells. Measure of Secreted Homocysteine: • 1. […]
a. […] Detection: Fluorescence: Excitation 385 nm, Emission 515 nm • v. […]
b. […] absorbance at 550 nm and 690 nM. • 6. Express readout as 550 nM-690 nM.

| Structure (SMILES) | IC50 (AHCY enzyme) | IC50 [1] |
| --- | --- | --- |
| Nc1nccn2c([C@@H]3C=C(CO)[C@@H](O)[C@H]3O)cnc12 [Example 1, (1S,2R,5S)-5-(8-aminoimidazo[1,2-a]pyrazin-3-yl)-3-(hydroxymethyl)cyclopent-3-ene-1,2-diol] | 4 nM | 4 nM |
| Nc1nccn2c([C@@H]3CC[C@@H](O)[C@H]3O)cnc12 [Example 2, (1R,2S,3S)-3-(8-aminoimidazo[1,2-a]pyrazin-3-yl)cyclopentane-1,2-diol] | 692 nM | 1.4 nM |
